Assay results: patent US20180246095A1, “COMPOSITIONS AND METHODS FOR DIAGNOSING AND TREATING LYME DISEASE” (priority 2015, published 2018)

Test system: B. burgdorferi B31
Experiment: RNA-Seq gene expression profile of B. burgdorferi persisters that survived antibiotic treatment, compared with drug free control
Type: cell-based, Borrelia burgdorferi
Settings: vs drug free control
Procedure: RNA Sequencing (RNA-Seq) was performed to determine the gene expression profile of B. burgdorferi persisters that survived antibiotic treatment using next generation sequencing to shed light on the mechanisms of B. burgdorferi persistence. B. burgdorferi B31 cultures were grown for 5 days to 1×10^7 spirochetes/ml in BSK-H medium followed by treatment with 50 μg/ml doxycycline or 50 μg/ml amoxicillin for 6 days. Triplicate biological samples were used for each group. The total RNA was extracted and ribosomal RNA was removed prior to preparation of cDNA libraries for Illumina sequencing. […] The RNA-Seq data was analyzed by BLAST analysis and mapped to KEGG pathways.

[1] = 50 μg/ml antibiotic for 6 days, more than two-fold change

SMILES | genes down-regulated in treated group (50 μg/ml antibiotic for 6 days) [genes] | genes upregulated in treated group (50 μg/ml antibiotic for 6 days) [genes] | total genes differentially expressed between tolerant persisters and drug free group (50 μg/ml antibiotic for 6 days) [genes] | down-regulated genes identified by more than two-fold change [1] [genes] | up-regulated genes identified by more than two-fold change [1] [genes] | clpP (BB_0757) expression, upregulated fold change in persisters (B31 culture treated with 50 μg/ml antibiotic for 6 days) [fold]
CC1(C)S[C@@H]2[C@H](NC(=O)[C@H](N)c3ccc(O)cc3)C(=O)N2[C@H]1C(=O)O [amoxicillin, reference compound] | 174 | 342 | 516 |  |  | 
C[C@H]1c2cccc(O)c2C(=O)C2=C(O)[C@]3(O)C(=O)C(C(N)=O)=C(O)[C@@H](N(C)C)[C@@H]3[C@@H](O)[C@@H]21 [doxycycline, reference compound] | 340 | 335 | 675 | 33 | 35 | 30
